6 compounds from article PMC6466835 (ACS Medicinal Chemistry Letters, 2019) can be followed below.

Molecules are shown by their SMILES.

For data set [1], the system named is supercoiled plasmid pBR322. Nature of the data set: DNA cleavage assay. The data set is classed as biochemical.
Data set [2] relates to double-stranded oligodeoxynucleotide (dsDNA). Nature of the data set: ESI-MS analysis of DNA alkylation. The data set is classed as biochemical. Particulars: 50 μM compound, 2 μM dsDNA.
The nature of data set [3]: Parallel artificial membrane permeation assay. The data set is classed as in vitro ADME. Particulars: incubation for 1 h, PBS pH 7.4.
In data set [4] the test system is BxPC-3 pancreatic carcinoma cells. Nature of the data set: MTT cytotoxicity assay, BxPC-3. The data set is classed as cell-based. Particulars: BxPC-3 cells, L-1 versus D-1.
Where [5] appears, read: 2 h at 37 °C, highest concentration 50 μM.

With `CCCCN1CCCC(Cl)C1` (stereo not shown) [Compound 1], in data set [1] (2 h at 37 °C, 5 and 50 μM), the DNA cleavage activity entry was “inactive”. For the same compound, the “DNA modifications detected by ESI-MS” value in data set [2] (2 h at 37 °C) is “exclusively the signal corresponding to the unreacted DNA substrate”; in data set [2] (18 h at 37 °C) it was “formation of adducts and of abasic lesions”.
Turning to `CCCCN1CC(Cl)CC(C)(C)C1` (stereo not shown) [Compound 2], in data set [1] (setting [5]), the DNA cleavage activity entry is on record as “caused the conversion of supercoiled DNA into the OC form”. The “PAMPA permeation, in words” value in data set [3] is listed as “barely detected in the acceptor compartment”. In addition, the “DNA modifications detected by ESI-MS” value in data set [2] (2 h at 37 °C) was “additional peaks corresponding to 3-chloropiperidine–DNA adducts were detected”; in data set [2] (18 h at 37 °C), “formation of adducts and of abasic lesions”.
For the compound `CC1(C)CC(Cl)CN(Cc2ccccc2)C1` (stereo not shown) [Compound 3], the DNA cleavage activity result in data set [1] (setting [5]) is reported as “caused the conversion of supercoiled DNA into the OC form”. For the same compound, the “PAMPA permeation, in words” value in data set [3] is on record as “barely detected in the acceptor compartment”.
Take `CCCCN1CCC[C@H](Cl)C1` [D-1]: in data set [1] (18 h at 37 °C, 5 and 50 μM), the DNA cleavage activity entry was “inactive even after prolonged incubation”.
In the case of `CCCCN1CCC[C@@H](Cl)C1` [L-1], in data set [1] (18 h at 37 °C, 5 and 50 μM), the DNA cleavage activity entry is listed as “more active than the racemate 1”. In addition, the eudismic ratio in data set [4] is listed as ~40.
As for `O=C(O)CCCc1ccc(N(CCCl)CCCl)cc1` [chlorambucil, reference compound], the DNA cleavage activity result in data set [1] (2 h at 37 °C, 5 and 50 μM) is “inactive at all concentrations”.
